According to ChEMBL document CHEMBL1201862, “PubChem BioAssay data set” (2004):
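How tested: cells in 96-well plates exposed to compound for 48 hours at five concentrations. GI50 marks 50% less growth.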 Calls of active or inactive are those of the source. Rule as the data show it: active = GI50 up to about 1.1 µM and inactive = higher.

Columns and labels:
Experiment in all cases: NCI tumour cell line growth inhibition, 48 h
RXF 393 = test system: RXF 393
MDA-MB-435 = test system: MDA-MB-435
HCT-15 = test system: HCT-15
DMS-273 = test system: DMS-273
SK-MEL-28 = test system: SK-MEL-28
SK-OV-3 = test system: SK-OV-3
OVCAR-8 = test system: OVCAR-8
MOLT-4 = test system: MOLT-4
KM-20L2 = test system: KM-20L2
SK-MEL-2 = test system: SK-MEL-2
PC-3 = test system: PC-3
CCRF-CEM = test system: CCRF-CEM
SW-620 = test system: SW-620
OVCAR-3 = test system: OVCAR-3
Hs-578T = test system: Hs-578T
COLO 205 = test system: COLO 205
XF498 = test system: XF498
OVCAR-5 = test system: OVCAR-5
BT-549 = test system: BT-549
NCI/ADR-RES = test system: NCI/ADR-RES
A498 = test system: A498
TK-10 = test system: TK-10
SNB-19 = test system: SNB-19
SF-268 = test system: SF-268
786-0 = test system: 786-0
MDA-N = test system: MDA-N
NCI-H522 = test system: NCI-H522
M14 = test system: M14
KM12 = test system: KM12
RPMI-8226 = test system: RPMI-8226
HCC 2998 = test system: HCC 2998
NCI-H460 = test system: NCI-H460
OVCAR-4 = test system: OVCAR-4
NCI-H226 = test system: NCI-H226
SN12C = test system: SN12C
HOP-62 = test system: HOP-62
Malme-3M = test system: Malme-3M
HOP-18 = test system: HOP-18
SNB-78 = test system: SNB-78
RXF 631 = test system: RXF 631
DMS-114 = test system: DMS-114
DU-145 = test system: DU-145
UACC-257 = test system: UACC-257
LXFL 529 = test system: LXFL 529
HCT-116 = test system: HCT-116
SF-539 = test system: SF-539
NCI-H23 = test system: NCI-H23
MCF7 = test system: MCF7
U-251 = test system: U-251
DLD-1 = test system: DLD-1
CAKI-1 = test system: CAKI-1
HT-29 = test system: HT-29
M19-MEL = test system: M19-MEL
IGROV-1 = test system: IGROV-1
UACC-62 = test system: UACC-62
ACHN = test system: ACHN
LOX IMVI = test system: LOX IMVI
K562 = test system: K562
SF-295 = test system: SF-295
A549 = test system: A549
HOP-92 = test system: HOP-92
UO-31 = test system: UO-31
EKVX = test system: EKVX
SR = test system: SR
T47D = test system: T47D
MDA-MB-231 = test system: MDA-MB-231
SK-MEL-5 = test system: SK-MEL-5
SNB-75 = test system: SNB-75

CC(=O)/C(C)=N/NC(=O)c1ccccc1O
GI50 (RXF 393): > 10 µM (inactive) | GI50 (MDA-MB-435): > 100 µM (inactive) | GI50 (HCT-15): 97.5 µM | GI50 (DMS-273): > 10 µM (inactive) | GI50 (SK-MEL-28): > 10 µM (inactive) | GI50 (SK-OV-3): > 10 µM (inactive) | GI50 (OVCAR-8): > 10 µM (inactive) | GI50 (MOLT-4): 31.7 µM (inactive) | GI50 (KM-20L2): > 10 µM (inactive) | GI50 (SK-MEL-2): > 10 µM (inactive) | GI50 (PC-3): > 100 µM (inactive) | GI50 (CCRF-CEM): 23 µM (inactive) | GI50 (SW-620): > 10 µM (inactive) | GI50 (OVCAR-3): 69.5 µM (inactive) | GI50 (Hs-578T): > 100 µM (inactive) | GI50 (COLO 205): > 10 µM (inactive) | GI50 (XF498): > 10 µM (inactive) | GI50 (OVCAR-5): > 10 µM (inactive) | GI50 (BT-549): > 100 µM (inactive) | GI50 (NCI/ADR-RES): > 100 µM (inactive) | GI50 (A498): 47.9 µM (inactive) | GI50 (TK-10): > 10 µM (inactive) | GI50 (SNB-19): > 10 µM (inactive) | GI50 (SF-268): > 10 µM (inactive) | GI50 (786-0): > 10 µM (inactive) | GI50 (MDA-N): > 100 µM (inactive) | GI50 (NCI-H522): > 100 µM (inactive) | GI50 (M14): > 10 µM (inactive) | GI50 (KM12): > 10 µM (inactive) | GI50 (RPMI-8226): > 10 µM (inactive) | GI50 (HCC 2998): > 10 µM (inactive) | GI50 (NCI-H460): > 10 µM (inactive) | GI50 (OVCAR-4): > 10 µM (inactive) | GI50 (NCI-H226): > 10 µM (inactive) | GI50 (SN12C): > 10 µM (inactive) | GI50 (HOP-62): > 10 µM (inactive) | GI50 (Malme-3M): > 10 µM (inactive) | GI50 (HOP-18): > 10 µM (inactive) | GI50 (SNB-78): > 10 µM (inactive) | GI50 (RXF 631): > 10 µM (inactive) | GI50 (DMS-114): > 10 µM (inactive) | GI50 (DU-145): > 100 µM (inactive) | GI50 (UACC-257): > 10 µM (inactive) | GI50 (LXFL 529): > 10 µM (inactive) | GI50 (HCT-116): > 10 µM (inactive) | GI50 (SF-539): > 10 µM (inactive) | GI50 (NCI-H23): > 10 µM (inactive) | GI50 (MCF7): > 100 µM (inactive) | GI50 (U-251): > 10 µM (inactive) | GI50 (DLD-1): > 10 µM (inactive) | GI50 (CAKI-1): > 10 µM (inactive) | GI50 (HT-29): > 10 µM (inactive) | GI50 (M19-MEL): > 10 µM (inactive) | GI50 (IGROV-1): 75 µM (inactive) | GI50 (UACC-62): 39.7 µM (inactive) | GI50 (ACHN): > 10 µM (inactive) | GI50 (LOX IMVI): > 10 µM (inactive) | GI50 (K562): 37 µM (inactive) | GI50 (SF-295): > 10 µM (inactive) | GI50 (A549): > 10 µM (inactive) | GI50 (HOP-92): > 10 µM (inactive) | GI50 (UO-31): > 10 µM (inactive) | GI50 (EKVX): > 10 µM (inactive) | GI50 (SR): 41.6 µM (inactive) | GI50 (T47D): > 100 µM (inactive) | GI50 (MDA-MB-231): > 100 µM (inactive) | GI50 (SK-MEL-5): 95.1 µM (inactive) | GI50 (SNB-75): > 10 µM (inactive)
